Blank lines part the entries; values can stand above or below the molecule they belong to. Active and inactive are the calls of the source. The rule behind the calls is not given here.
What was measured:
[1] = target: T1, RecQ-like DNA helicase BLM (Homo sapiens, UniProt P54132); experiment: Displacement of thiazole orange from His-tagged BLM (unknown origin) expressed in Escherichia coli BL21 (DE3) assessed as decrease in fluorescence intensity by fluorescence based analysis
[2] = target: T1, RecQ-like DNA helicase BLM; experiment: Inhibition of His-tagged BLM (unknown origin) expressed in Escherichia coli BL21 (DE3) using 5'-biotin-labeled duplex forked-DNA as substrate incubated for 10 mins followed by substrate addition measured after 30 mins in presence of ATP by electrophoretic mobility shift assay
[3] = target: T1, RecQ-like DNA helicase BLM; experiment: Displacement of thiazole orange from His-tagged BLM (unknown origin) expressed in Escherichia coli BL21 (DE3) assessed as decrease in fluorescence intensity at 10 uM by fluorescence based analysis
[4] = Disruption of BLM/5'-biotin-labeled duplex forked-DNA interaction incubated for 30 mins by ELISA assay
[5] = system: HCT-116; experiment: Cytotoxicity against human HCT-116 cells assessed as inhibition of cell growth measured after 48 hrs by MTT assay; assay type: functional, cell-based; conditions: HCT-116, 48 h
[6] = system: SW480; experiment: Cytotoxicity against human SW480 cells assessed as inhibition of cell growth measured after 48 hrs by MTT assay; assay type: functional, cell-based; conditions: SW480, 48 h
[7] = system: RKO; experiment: Cytotoxicity against human RKO cells assessed as inhibition of cell growth measured after 48 hrs by MTT assay; assay type: functional, cell-based
[8] = Cytotoxicity against human NCM460 cells assessed as inhibition of cell growth measured after 48 hrs by MTT assay; assay type: toxicity, cell-based
[9] = target: T1, RecQ-like DNA helicase BLM; experiment: Inhibition of BLM (unknown origin) assessed as ATP hydrolysis using 5'-biotin-labeled duplex forked-DNA as substrate incubated for 10 mins in presence of ATP by luciferase assay
[10] = system: SW480; experiment: Inhibition of colony formation in human SW480 cells incubated for 10 days by crystal violet staining based assay; assay type: functional, cell-based; conditions: SW480, 240 h
[11] = system: HCT-116; experiment: Antiproliferative activity against wild type human HCT-116 cells assessed as inhibition of cell growth incubated for 48 hrs by propidium iodide staining based high-content imaging analysis; assay type: functional; conditions: HCT-116, 48 h
[12] = target: T1, RecQ-like DNA helicase BLM; experiment: Inhibition of BLM in human HCT-116 cells co-transfected with I-SceI assessed as effect on HRR level by measuring GFP expression at 1 to 3 uM incubated for 48 hrs by propidium iodide staining based high-content imaging analysis; assay type: cell-based; conditions: dose 1-3 µM
[13] = target: T1, RecQ-like DNA helicase BLM; experiment: Inhibition of BLM in human HCT-116 cells co-transfected with DR-GFP and I-SceI plasmid assessed as decease in recruitment of BLM to DSB site at 1 to 2 uM incubated for 48 hrs by qPCR analysis; assay type: cell-based; conditions: dose 1-2 µM
[14] = system: HCT-116; experiment: Induction of DNA damage in human HCT-116 cells at 3 uM incubated for 48 hrs by DAPI staining based laser scanning confocal microscopic analysis; assay type: functional, cell-based
[15] = system: SW480; experiment: Induction of DNA damage in human SW480 cells at 3 uM incubated for 48 hrs by DAPI staining based laser scanning confocal microscopic analysis; assay type: functional, cell-based
[16] = system: RKO; experiment: Induction of DNA damage in human RKO cells at 3 uM incubated for 48 hrs by DAPI staining based laser scanning confocal microscopic analysis; assay type: functional, cell-based
[17] = system: HCT-116; experiment: Induction of DNA damage in human HCT-116 cells assessed as increase in gamma-H2AX level at above 0.3 uM incubated for 48 hrs by Western blotting analysis; assay type: functional, cell-based
[18] = system: SW480; experiment: Induction of DNA damage in human SW480 cells assessed as increase in gamma-H2AX level at above 0.3 uM incubated for 48 hrs by Western blotting analysis; assay type: functional, cell-based
[19] = system: RKO; experiment: Induction of DNA damage in human RKO cells assessed as increase in gamma-H2AX level at above 0.3 uM incubated for 48 hrs by Western blotting analysis; assay type: functional, cell-based
[20] = system: HCT-116; experiment: Induction of cell cycle arrest in human HCT-116 cells assessed as accumulation of cells at S phase at 4 uM measured after 48 hrs by propidium iodide staining based high-content screening method; assay type: functional
[21] = system: SW480; experiment: Induction of cell cycle arrest in human SW480 cells assessed as accumulation of cells at S phase at 4 uM measured after 48 hrs by propidium iodide staining based high-content screening method; assay type: functional
[22] = system: HCT-116; experiment: Induction of cell cycle arrest in human HCT-116 cells assessed as accumulation of cells at G2/M phase at 4 uM measured after 48 hrs by propidium iodide staining based high-content screening method; assay type: functional
[23] = system: SW480; experiment: Induction of cell cycle arrest in human SW480 cells assessed as accumulation of cells at G2/M phase at 4 uM measured after 48 hrs by propidium iodide staining based high-content screening method; assay type: functional
[24] = system: RKO; experiment: Induction of cell cycle arrest in human RKO cells assessed as accumulation of cells at G2/M phase at 4 uM measured after 48 hrs by propidium iodide staining based high-content screening method; assay type: functional
[25] = system: HCT-116; experiment: Induction of apoptosis in human HCT-116 cells assessed as apoptotic cells at 1 uM measured after 48 hrs by Annexin V-FITC/PI staining based flow cytometry (reference value: 14%); assay type: functional
[26] = system: SW480; experiment: Induction of apoptosis in human SW480 cells assessed as apoptotic cells at 1 uM measured after 48 hrs by Annexin V-FITC/PI staining based flow cytometry (reference value: 16%); assay type: functional
[27] = system: HCT-116; experiment: Inhibition of colony formation in human HCT-116 cells incubated for 10 days by crystal violet staining based assay; assay type: functional, cell-based; conditions: HCT-116, 240 h
[28] = system: RKO; experiment: Inhibition of colony formation in human RKO cells incubated for 10 days by crystal violet staining based assay; assay type: functional, cell-based; conditions: 240 h
[29] = system: HCT-116; experiment: Inhibition of cell invasion in human HCT-116 cells incubated for 48 hrs by crystal violet staining based transwell assay; assay type: functional; conditions: HCT-116, 48 h

T1 sequence (P54132 whole entry): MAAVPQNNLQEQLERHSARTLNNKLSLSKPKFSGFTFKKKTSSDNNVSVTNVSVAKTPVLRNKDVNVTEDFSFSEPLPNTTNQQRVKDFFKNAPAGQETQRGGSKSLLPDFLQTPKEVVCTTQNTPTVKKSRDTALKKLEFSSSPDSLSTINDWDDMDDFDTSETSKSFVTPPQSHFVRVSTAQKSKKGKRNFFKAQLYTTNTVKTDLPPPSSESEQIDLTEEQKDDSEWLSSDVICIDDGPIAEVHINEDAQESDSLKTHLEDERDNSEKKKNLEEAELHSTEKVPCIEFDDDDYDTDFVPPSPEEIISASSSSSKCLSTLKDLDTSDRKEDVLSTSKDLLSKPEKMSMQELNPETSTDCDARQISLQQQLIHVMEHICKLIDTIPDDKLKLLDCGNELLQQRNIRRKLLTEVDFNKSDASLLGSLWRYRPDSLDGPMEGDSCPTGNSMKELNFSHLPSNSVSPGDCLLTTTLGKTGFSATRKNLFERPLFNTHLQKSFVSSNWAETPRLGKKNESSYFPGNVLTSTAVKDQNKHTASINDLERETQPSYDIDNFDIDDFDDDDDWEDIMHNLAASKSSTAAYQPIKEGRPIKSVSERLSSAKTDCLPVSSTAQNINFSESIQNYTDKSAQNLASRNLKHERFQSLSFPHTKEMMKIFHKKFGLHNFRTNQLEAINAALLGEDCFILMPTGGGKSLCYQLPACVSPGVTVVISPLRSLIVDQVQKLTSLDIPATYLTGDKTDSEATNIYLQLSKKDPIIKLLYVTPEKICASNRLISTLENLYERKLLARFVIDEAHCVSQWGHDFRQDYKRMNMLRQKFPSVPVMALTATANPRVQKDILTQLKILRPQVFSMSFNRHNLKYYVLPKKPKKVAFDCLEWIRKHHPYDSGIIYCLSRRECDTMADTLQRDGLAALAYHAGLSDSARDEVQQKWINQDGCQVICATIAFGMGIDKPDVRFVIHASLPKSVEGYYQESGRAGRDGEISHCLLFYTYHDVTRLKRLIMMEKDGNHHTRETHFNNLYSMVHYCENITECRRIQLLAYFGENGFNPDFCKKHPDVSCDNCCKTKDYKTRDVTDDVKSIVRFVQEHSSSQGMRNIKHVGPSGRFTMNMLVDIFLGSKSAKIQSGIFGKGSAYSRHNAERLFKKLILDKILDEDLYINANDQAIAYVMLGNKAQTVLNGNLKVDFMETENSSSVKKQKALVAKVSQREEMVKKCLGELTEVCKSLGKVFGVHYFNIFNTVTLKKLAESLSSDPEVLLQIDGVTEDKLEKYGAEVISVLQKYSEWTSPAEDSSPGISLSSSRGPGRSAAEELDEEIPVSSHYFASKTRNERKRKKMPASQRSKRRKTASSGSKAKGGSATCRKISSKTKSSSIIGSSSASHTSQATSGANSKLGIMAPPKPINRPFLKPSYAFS

IC50 [1]: > 10 µM | IC50 [2]: > 32 µM
Compound: CCCn1c(/C=C/c2ccc(C(C)C)cc2)nc2cc(NCCCN(CC)CC)c(F)cc2c1=O

IC50 [1]: > 10 µM | IC50 [2]: 5.8 µM
Compound: CCN(CC)CCCNc1cc2nc(/C=C/c3ccc(C(C)C)cc3)n(Cc3ccccc3)c(=O)c2cc1F

IC50 [2]: > 32 µM | Activity [3]: inactive
Compound: CCN(CC)CCCNc1cc2nc(/C=C/c3ccc(C(C)C)cc3)n(CC3CCOCC3)c(=O)c2cc1F

IC50 [2]: 5.2 µM | Activity [3]: inactive
Compound: CCN(CC)CCCNc1cc2nc(/C=C/c3ccc(C(C)C)cc3)n(Cc3ccccc3F)c(=O)c2cc1F

IC50 [1]: > 10 µM | IC50 [2]: > 32 µM
Compound: CCN(CC)CCCNc1cc2nc(/C=C/c3ccc(C(C)C)cc3)n(CCCN3CCOCC3)c(=O)c2cc1F

IC50 [2]: 8 µM | Activity [3]: inactive
Compound: C=C(C)Cn1c(/C=C/c2ccc(C(C)C)cc2)nc2cc(NCCCN(CC)CC)c(F)cc2c1=O

IC50 [2]: 9.7 µM | Activity [3]: inactive
Compound: CCN(CC)CCCNc1cc2nc(/C=C/c3ccc(C(C)C)cc3)n(Cc3ccccc3Cl)c(=O)c2cc1F

IC50 [1]: > 10 µM | IC50 [2]: 5.1 µM | IC50 [4]: 7.3 µM | IC50 [9]: > 32 µM
Compound: CCN(CC)CCCNc1cc2nc(/C=C/c3ccc(C(C)C)cc3)n(CCCl)c(=O)c2cc1F
IC50 [5]: 5.6 µM | IC50 [6]: 4.5 µM | IC50 [7]: 5.6 µM | IC50 at 48 h [8]: 15 µM

IC50 [1]: > 10 µM | IC50 [2]: > 32 µM
Compound: CCN(CC)CCCNc1cc2nc(/C=C/c3ccc(C(C)C)cc3)n(CCC#N)c(=O)c2cc1F

IC50 [2]: 2.9 µM | Activity [3]: inactive
Compound: CCN(CC)CCCNc1cc2nc(/C=C/c3ccc(C(C)C)cc3)n(Cc3ccccc3Br)c(=O)c2cc1F

IC50 [2]: 1.3 µM | IC50 [4]: 4.9 µM | Activity [3]: inactive | IC50 [9]: > 32 µM
Compound: CCN(CC)CCCNc1cc2nc(/C=C/c3ccc(C(C)C)cc3)n(CCCCl)c(=O)c2cc1F
IC50 [5]: 5.3 µM | IC50 [6]: 3.45 µM | IC50 [7]: 12.3 µM | IC50 at 48 h [8]: 9.6 µM

IC50 [1]: > 10 µM | IC50 [2]: > 32 µM
Compound: CCN(CC)CCCNc1cc2nc(/C=C/c3ccc(C(C)C)cc3)n(CCOC(C)=O)c(=O)c2cc1F

IC50 [2]: 2.3 µM | IC50 [4]: 9.9 µM | Activity [3]: inactive | IC50 [9]: > 32 µM
Compound: CCN(CC)CCCNc1cc2nc(/C=C/c3ccc(C(C)C)cc3)n(Cc3cccc(Br)c3)c(=O)c2cc1F
IC50 [5]: 2.9 µM | IC50 [6]: 1.9 µM | IC50 [7]: 5.7 µM | IC50 at 48 h [8]: 15.3 µM

IC50 [10]: 0.6 µM | IC50 [2]: 0.8 µM | IC50 [4]: 2.3 µM | Activity [3]: inactive | IC50 [9]: > 32 µM | IC50 [11]: 1.9 µM | inhibition [12]: Active | inhibition [13]: Active | IC50 [27]: 0.6 µM | IC50 [28]: 0.7 µM | IC50 [29]: 1 µM
Compound: CCN(CC)CCCNc1cc2nc(/C=C/c3ccc(C(C)C)cc3)n(Cc3ccc(Br)cc3)c(=O)c2cc1F
IC50 [5]: 2.8 µM | IC50 [6]: 2.2 µM | IC50 [7]: 5.4 µM | IC50 at 48 h [8]: 15.6 µM | Activity [14]: Active | Activity [15]: Active | Activity [16]: Active | Activity [17]: Active | Activity [18]: Active | Activity [19]: Active | Activity [20]: 54% | Activity [21]: 58% | Activity [22]: 20% | Activity [23]: 19% | Activity [24]: 25% | Activity [25]: 35% | Activity [26]: 68%

IC50 [2]: 8.3 µM | Activity [3]: inactive
Compound: CCN(CC)CCCNc1cc2nc(/C=C/c3ccc(C(C)C)cc3)n(CC3CC3)c(=O)c2cc1F

IC50 [1]: > 10 µM | IC50 [2]: 2.5 µM | IC50 [4]: 4.5 µM | IC50 [9]: > 32 µM
Compound: CCN(CC)CCCNc1cc2nc(/C=C/c3ccc(C(C)C)cc3)n(CCN(C)C)c(=O)c2cc1F
IC50 [5]: 3 µM | IC50 [6]: 10.1 µM | IC50 [7]: 10.6 µM | IC50 at 48 h [8]: > 25 µM

IC50 [2]: 9.1 µM | Activity [3]: inactive
Compound: CCN(CC)CCCNc1cc2nc(/C=C/c3ccc(C(C)C)cc3)n(CCC(C)C)c(=O)c2cc1F

IC50 [2]: 3.7 µM | Activity [3]: inactive
Compound: CCCCCn1c(/C=C/c2ccc(C(C)C)cc2)nc2cc(NCCCN(CC)CC)c(F)cc2c1=O

IC50 [1]: > 10 µM | IC50 [2]: 4 µM
Compound: CCN(CC)CCCNc1cc2nc(/C=C/c3ccc(C(C)C)cc3)n(CCc3ccccc3)c(=O)c2cc1F

IC50 [2]: 32 µM | Activity [3]: inactive
Compound: CCN(CC)CCCNc1cc2nc(/C=C/c3ccc(C(C)C)cc3)n(CCCO)c(=O)c2cc1F

IC50 [2]: 5.3 µM | Activity [3]: inactive
Compound: CCN(CC)CCCNc1cc2nc(/C=C/c3ccc(C(C)C)cc3)n(Cc3ccccc3C(F)(F)F)c(=O)c2cc1F

IC50 [2]: 4.8 µM | Activity [3]: inactive
Compound: CCCCn1c(/C=C/c2ccc(C(C)C)cc2)nc2cc(NCCCN(CC)CC)c(F)cc2c1=O

IC50 [2]: 5 µM | Activity [3]: inactive
Compound: CCN(CC)CCCNc1cc2nc(/C=C/c3ccc(C(C)C)cc3)n(Cc3ccc(OC)cc3)c(=O)c2cc1F

IC50 [2]: 4.3 µM | Activity [3]: inactive
Compound: CCN(CC)CCCNc1cc2nc(/C=C/c3ccc(C(C)C)cc3)n(CC#N)c(=O)c2cc1F

IC50 [1]: > 10 µM | IC50 [2]: 5.2 µM
Compound: CCN(CC)CCCNc1cc2nc(/C=C/c3ccc(C(C)C)cc3)n(CCCOC(C)C)c(=O)c2cc1F

IC50 [2]: > 32 µM | Activity [3]: inactive
Compound: CCN(CC)CCCNc1cc2nc(/C=C/c3ccc(C(C)C)cc3)n(CCCN(CC)CC)c(=O)c2cc1F
